# In PMC8360069, “Prediction and Validation of a Druggable Site on Virulence Factor of Drug Resistant Burkholderia cenocepacia” (Chemistry (Weinheim an Der Bergstrasse, Germany), 2021):
# pKd: −log10 of the molar value.
# How the values were obtained:
# Type in all cases: binding
# BC2L-C [1] = molecular target: T1, BC2L-C (Burkholderia cenocepacia, UniProt B4EH86); experiment: STD-NMR; thermal shift assay (about +[…] °C)
# T1 construct: gene BCAM0185; N-terminal domain (BC2L-C-nt)
# BC2L-C [2] = molecular target: T1, BC2L-C; experiment: STD-NMR in the presence of Me-α-L-Fuc (no density in soaked crystals)
# BC2L-C [3] = molecular target: T1, BC2L-C; experiment: ITC; X-ray crystal structure ([…] Å, with Globo H); STD-NMR
# T1 sequence (B4EH86 entry or part of it): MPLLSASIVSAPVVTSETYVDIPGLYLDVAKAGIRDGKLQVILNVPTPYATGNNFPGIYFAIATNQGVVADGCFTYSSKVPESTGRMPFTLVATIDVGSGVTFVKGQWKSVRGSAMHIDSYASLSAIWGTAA
smiles,measurement,setting,value
CO[C@@H]1O[C@@H](C)[C@@H](O)[C@@H](O)[C@@H]1O [Methyl α-L-fucoside],STD-NMR; thermal shift assay (about +2 °C),BC2L-C [1],"Me‐α‐L‐Fuc was initially tested alone in the experiment, verifying that it binds BC2L‐C‐nt"
NC(CO)Cc1ccccc1 (stereo not drawn) [KL9],STD-NMR in the presence of Me-α-L-Fuc (no density in soaked crystals),BC2L-C [2],confirming the binding event for the three fragments in the BC2L‐C‐nt/fucose complex
"Cc1nccn1-c1cccc(CN)c1 [KL3, 3‐(2‐Methyl‐1H‐imidazol‐1‐yl) benzylamine]",pKd,BC2L-C [3],3.06
